Experimental data reported in patent US6133299A, “Methods for treating neurodegenerative diseases and disorders using N-(2,6-disubstituted aromatic)-N'-pyridinyl ureas and other anticonvulsant compounds” (Warner-Lambert Company, priority 1993, dated 2000).

Experiments:
calcium channels = conditions: concentrations similar to those tested; cited from earlier work
[1] = tested on: neuroprotective capabilities; assay: Neuroprotective capabilities in vitro (general statement); format: cell-based
[2] = tested on: neuronal damage from ischemia; conditions: in vitro and in vivo; cited from earlier work
Hippocampal Slices = assay: Recovery of synaptic activity (EPSP) in hippocampal slices after hypoxia-hypoglycemia (Example 4); format: cell-based, rat (male Wistar)
Description: Young male Wistar rats (150 to 250 g) were anesthetized with ketamine (200 mg/kg IP) and ether and were perfused transcardially with cold, oxygenated, low sodium-containing physiological buffer solution (252 mM sucrose, 3.5 mM KCl, 1.0 mM MgSO4, 20 mM CaC1, 26 mM NaHCO3, 1.25 mM NaH2 PO4, and 10 mM glucose) with 50 μM ketamine added. Brains were removed and hippocampi carefully excised. Hippocampi were sliced transversely at 450 μm and transferred into cold (4° C.) low-sodium buffer solution gassed with 95% O2, 5% CO2 at 31° C. After 45 minutes slices were transferred to oxygenated normal physiological solution (126 mM NaCl, 3.5 mM KCl, 1.0 mM MgSO4, 2.0 mM CaCl2, 20 mM NaHCO3, 1.25 mM NaH2 PO4, and 10 mM glucose) at 31° C. for at least 1 hour before experiments began. After preincubation, slices were transferred to a heated (36° C.), gassed incubation chamber where they were continuously superfused with gassed normal physiological solution. Evoked extracellular synaptic potentials (EPSPs) were obtained using glass micropipettes placed approximately 100 μm into the slice. Electrical stimulation was applied once per minute to the stratum radiatum by insulated paired nichrome wires (60 μm diameter). Stimuli consisted of 150 μA pulses lasting 0.4 msec. […] Data from a slice were used only if EPSP amplitude was greater than 2.0 mV before hypoxia-hypoglycemia.
Evoked potentials were recorded and analyzed with a digital computer interface. Experiments were started by recording for several minutes under normal conditions (95% O2, 5% CO2, 10 mM glucose). Then drug was added to the superfusion solution (or normal solution was continued in control experiments). After 10 minutes of drug superfusion, hypoxia-hypoglycemia was induced by switching to superfusion solution containing added drug with low glucose (2 mM) that was equilibrated with 95% N2 and 5% CO2. At the same time the slice chamber gas was switched to 95% N2 and 5% CO2. Hypoxia-hypoglycemia was continued for 12 minutes. After 12 minutes, 95% O2 and 10 mM glucose were returned to the slices and the superfusing solution. Following 15 minutes of reoxygenation, the experiment was ended. EPSPs were considered recovered if they returned to at least half of their original amplitude. The percentage of slices with recovered EPSPs were calculated for each condition.
This study was identical in design to Example 3 except that during the hypoxic period of 12 minutes, glucose was reduced from 10 mM to 2 mM rather than from 10 mM to zero as in Example 3.

[3] = tested on: Neuronal/Glial Cortical Cultures; assay: Hypoxia-induced lactate dehydrogenase release (cell injury) in neuronal/glial cortical cultures; format: cell-based, rat (Sprague Dawley); conditions: Rattus norvegicus, read-out: % Inh (percent inhibition of the release of lactate dehydrogenase in comparison to hypoxic control cultures)
Description: An assay was conducted to compare the inhibitory action of various compounds which are the subject of the present invention. The assay measured the oxygen deprivation-induced neuronal cell death from various cortical cultures. Lactate dehydrogenase (LDH) is a cytosolic enzyme that is only present in the extracellular medium if cell membranes rupture, indicating cell death. Therefore, LDH release into the culture medium is a convenient assay of cell death. The results of Table 3 indicate that each of the compounds tested decreased neuronal cell death from hypoxia in vitro.
The uteri of Sprague Dawley rats in their 18th day of fetal gestation were removed under halothane anesthesia and placed in a chilled bath of magnesium and calcium-free Hank's balanced salt solution (HBSS). Cortical brain hemispheres were removed from individual fetuses and digested in 0.1% trypsin in HBSS for 15 minutes at room temperature. Digested tissue was washed three times with HBSS then dissociated into a single cell suspension by trituration with a glass pipette. […] One hundred microliters of this cell suspension was pipetted into individual wells of 96-well tissue culture plates previously coated with poly-L-lysine, then stored in a humidified incubator (37° C., 3% CO2). Glial cell growth was stopped by the addition of 100 μL of 45% DME, 45% HAM F12, and 10% Horse serum (10/0 DME/F12) containing 15 μg/mL of 5-fluoro-2-deoxyuridine and 35 μg/mL of uridine, 3 days after the initial plating. Cultures were fed at 2- or 3-day intervals thereafter by replacing 100 μL of spent medium with an identical volume of fresh 10/0 DME/F12.
Sixteen-day-old cultures were prepared for experiments by removing growth medium from each culture well and rinsing once with 250 μL of Mg^++ -free HBSS containing 1.8 mM Ca^++ and 1 g/L D-glucose (0 Mg-HBSS) Control and test agent solutions, prepared using 0 Mg-HBSS medium, were dispensed in 50 μL aliquots into individual test wells (Total volume/well=50 μL). All liquid medium preparations to this point were equilibrated with […], 5% CO2. Plates were placed into a 37° C., humidified, triple-gas incubator with O2 and CO2 levels maintained at 1% and 10%, respectively. Plates were removed after 7.5 hours of oxygen deprivation and restored to normoxic conditions (20% O2 /10% CO2, 37° C.) following a 50 μL addition to each well of appropriate control or test agent solutions containing 1.8 mM Ca^++, 1.6 mM Mg^++, and 7.0 g/L D-glucose. Final medium concentrations of 1.8 mM Ca^++, 0.8 mM Mg^++, and 4 g/L D-glucose were present during the reoxygenation period.
Medium concentrations of lactate dehydrogenase (LDH), a cytosolic enzyme normally retained by cells but released upon cell death, were determined for each well following an additional 16.5-hour normoxic exposure period. Individual 25 μL medium specimens were collected from each well and placed into wells of a clean 96-well microtiter plate containing 225 μL of 0.1 M KPO4 buffer (pH=7.5 at 25° C.) and 30 μg NADH (reduced […] adenine dinucleotide). After 10-minute incubation at 37° C., 30 μL of 2.4 mM sodium pyruvate was added to each well and plates were gently shaken to mix solution. Plates were immediately placed into a Multiscan MCC/340 plate reader and scanned for […] (excitation at 340 nm) for 1 minute at 5-second intervals. A kinetic analysis of the change in medium absorbance resulting from shifts in NADH concentrations was used, in combination with factors to correct for temperature, light path, and volume adjustments to determine medium LDH concentrations (IU/mL). Normoxic control baseline LDH levels were subtracted from both hypoxic control and test agent values prior to determining test agent effectiveness in preventing oxygen deprivation-induced injury.

Q: Which results are given for O=C1NC(=O)C(c2ccccc2)(c2ccccc2)N1 [Phenytoin, phenytoin]?
A: action on calcium channels (calcium channels): blocks a variety of calcium channels; neuroprotective capabilities [1]: shown in vitro to have neuroprotective capabilities; effect on neuronal damage from ischemia [2]: preventing neuronal damage from ischemia both in vitro and in vivo; Number Slices Recovered / Number Slices Tested (≥50% EPSP amplitude recovery after reoxygenation) (Hippocampal Slices; 5 μM): 0/8; Number Slices Recovered / Number Slices Tested (≥50% EPSP amplitude recovery after reoxygenation) (Hippocampal Slices; 20 μM): 5/12; Number Slices Recovered / Number Slices Tested (≥50% EPSP amplitude recovery after reoxygenation) (Hippocampal Slices; 50 μM): 3/9; recovery of EPSPs, overall effect (Hippocampal Slices; concentrations tested in Table 2): enhanced recovery of EPSPs; inhibition at 30 µM ([3]; 30 μM): 78%; inhibition at 100 µM ([3]; 100 μM): 82%
